Values of other authors in patent publication US20180325839A1, “TRANSDERMAL PATCHES” (BUZZZ PHARMACEUTICALS LIMITED, priority 2015, published 2018).

Tests used:
[1] = local anaesthetic during cataract surgery

Half-life compared with lidocaine [1]: longer | Skin permeation characteristics compared with lidocaine saturated H2O (ropivacaine saturated H2O): significantly poorer | In vivo skin penetration compared to a saturated solution of lidocaine (saturated solution of ropivacaine): poor
Structure (SMILES): CCCN1CCCC[C@H]1C(=O)Nc1c(C)cccc1C [ropivacaine, (2S)—N-(2,6-dimethylphenyl)-1-propyl-2-piperidinecarboxamide]
Potency relative to lidocaine, dose-for-dose [1]: as much as four times as potent as lidocaine
